Data on three molecules can be found in ChEMBL document CHEMBL3862021, “Eeyarestatin I derivatives with improved aqueous solubility” (Bioorg Med Chem Lett, 2016).

Values after ≈ are worked out from the molar mass of the structure shown. Active and inactive are the calls of the source. No cut-off for these calls is given here.

Data set [1] can be described thus: Thermodynamic solubility of the compound in DPBS after 24 hrs by LC-MS/MS analysis. Conditions: read-out: Therm_solubility. The format is physicochemical.
For data set [2], the target named is Transitional endoplasmic reticulum ATPase (Homo sapiens) (UniProt P55072). The experiment in a line: Inhibition of p97 in HEK293T cells assessed as induction of ER-stress by measuring ATF3 expression up to 40 uM after 16 hrs by immunoblot analysis. It counts as cell-based. Conditions: HEK-293T.
Data set [3] is described as follows: Half life in human plasma by LC-MS/MS analysis. It counts as ADME, cell-free.
Data set [4] in a line: Antiproliferative activity against human MIAPaCa2 cells assessed as reduction in cell viability after 72 hrs by MTT assay. The format is functional, cell-based. Conditions: MIA PaCa-2, 72 h.
Data set [5] in a line: Half life in mouse plasma by LC-MS/MS analysis. The format is ADME, cell-free.
Data set [6] can be described thus: Primary phase half life in mouse liver microsomes at 1 uM in presence of NADPH by LC-MS/MS analysis. The format is ADME. Particulars: read-out: alphat1/2. Background: Liver microsomes are vesicles of endoplasmic reticulum, rich in cytochrome P450 enzymes.
Data set [7] is described as follows: Primary phase half life in human liver microsomes at 1 uM in presence of NADPH by LC-MS/MS analysis. The format is ADME. Particulars: read-out: alphat1/2.
Data set [8] can be described thus: Terminal phase half life in mouse liver microsomes at 1 uM in presence of UDPGA by LC-MS/MS analysis. It counts as ADME. Conditions: read-out: beta t1/2.
Data set [9] can be described thus: Terminal phase half life in human liver microsomes at 1 uM in presence of UDPGA by LC-MS/MS analysis. The format is ADME. Particulars: read-out: beta t1/2.
Data set [10] in a line: Effect on endogenous p97 protein level in HEK293T cells up to 40 uM after 16 hrs by immunoblot analysis. Conditions: human, hek-293t. The format is ADME, cell-based.
In data set [11] the target is Transitional endoplasmic reticulum ATPase (Homo sapiens) (UniProt P55072). Briefly: Inhibition of p97 in HEK293T cells assessed as induction of ER-stress by measuring ATF4 expression at 20 uM after 16 hrs by immunoblot analysis. The format is cell-based. Conditions: HEK-293T. On the technique in general: A western blot detects proteins with antibodies after separation by electrophoresis.

Chain of Transitional endoplasmic reticulum ATPase (Homo sapiens) (P55072 2-806 limits assumed): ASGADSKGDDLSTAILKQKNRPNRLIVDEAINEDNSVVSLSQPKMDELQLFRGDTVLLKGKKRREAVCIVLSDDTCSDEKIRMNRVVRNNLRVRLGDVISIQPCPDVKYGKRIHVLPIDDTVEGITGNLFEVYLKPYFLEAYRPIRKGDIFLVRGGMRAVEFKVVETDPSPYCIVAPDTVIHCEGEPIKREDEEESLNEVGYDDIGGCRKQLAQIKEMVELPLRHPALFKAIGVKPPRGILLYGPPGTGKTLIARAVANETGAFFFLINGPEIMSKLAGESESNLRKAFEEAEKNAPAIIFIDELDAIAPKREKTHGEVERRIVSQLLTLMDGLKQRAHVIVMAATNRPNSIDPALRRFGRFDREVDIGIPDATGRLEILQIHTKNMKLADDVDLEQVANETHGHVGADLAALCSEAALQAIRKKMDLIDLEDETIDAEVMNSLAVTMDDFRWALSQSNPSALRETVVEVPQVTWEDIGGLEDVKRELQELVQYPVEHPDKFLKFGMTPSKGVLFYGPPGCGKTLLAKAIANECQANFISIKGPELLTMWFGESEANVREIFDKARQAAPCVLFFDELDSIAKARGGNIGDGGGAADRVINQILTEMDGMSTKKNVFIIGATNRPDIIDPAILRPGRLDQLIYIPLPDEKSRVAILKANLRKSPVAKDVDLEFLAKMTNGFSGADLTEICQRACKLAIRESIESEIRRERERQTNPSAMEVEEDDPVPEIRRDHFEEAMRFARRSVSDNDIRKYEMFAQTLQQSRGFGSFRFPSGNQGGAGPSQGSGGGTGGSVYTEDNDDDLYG

For the molecule `COCCOc1ccc(N2C(=O)N(CC(=O)N/N=C/C=C/c3ccc([N+](=O)[O-])o3)C(C)(C)C2N(O)C(=O)Nc2ccc(Cl)cc2)cc1` (stereo not given), the solubility thermodynamic at 24 h in [1] stood at 2.8 µM (≈ 1.88 µg/mL). Further, the inhibition result in [2] and in data set [11] was “Active” throughout. Further, the half-life in data set [3] is 17.2 h; in [5], 15.7 h. The half-maximal effective concentration (EC50) in [4] was determined as 6.3 µM. Further, the half-life at 1 µM came out at 2.32 h in data set [6], 0.53 h in data set [7], 14.4 h in [8] and 57.8 h in data set [9]. Moreover, in data set [10], the Activity result is reported as “Non-Toxic”.

For the molecule `COCCOc1ccc(NC(=O)N(O)C2N(c3ccc(Cl)cc3)C(=O)N(CC(=O)N/N=C/C=C/c3ccc([N+](=O)[O-])o3)C2(C)C)cc1` (stereo not given), the solubility thermodynamic at 24 h in data set [1] was found to be 2.3 µM (≈ 1.54 µg/mL). The inhibition result in data set [2] and in [11] was “Active” throughout. The half-life in data set [3] is 9.5 h; in data set [5], 12.5 h. Further, the EC50 in [4] was 5.4 µM. In addition, the half-life at 1 µM in data set [6] was found to be 1.75 h; in data set [7], 2.07 h; in data set [8], 16.5 h; in [9], 23.1 h. For the same molecule, in [10], the Activity entry is reported as “Non-Toxic”.

In the case of `COCCOc1ccc(NC(=O)N(O)C2N(c3ccc(OCCOC)cc3)C(=O)N(CC(=O)N/N=C/C=C/c3ccc([N+](=O)[O-])o3)C2(C)C)cc1` (stereo not given), in [1], the solubility thermodynamic at 24 h is 64.2 µM (≈ 45.6 µg/mL). Moreover, in data set [4], the EC50 worked out at 38.4 µM. The Activity entry in [10] was “Non-Toxic”.

As usually defined, the EC50 is the midpoint of the concentration-response curve.
